Measured values published in article PMC6338644 (The FASEB Journal, 2018).
Counter-ions that a name gives are not always drawn.

What was measured:
[1] = biological target: T1, phosphatase and tensin homolog (PTEN) (Homo sapiens, UniProt P60484); experiment: Manual malachite green phosphate assay, PTEN activity; assay type: biochemical
T1 construct: purchased Signalchem
Procedure: The catalytic activities of the recombinant SHIP2 and SHIP1 phosphatase domains were determined by malachite green phosphate assay at the High Throughput Biomedicine Unit (University of Helsinki) using D-myo-PI(3,4,5)P3 (Echelon Biosciences, Salt Lake City, UT, USA). Different volumes, resulting in desired final concentrations of inhibitors, were transferred to the wells of 384-well plates by using the Echo550 acoustic dispenser (Labcyte, San Jose, CA, USA). Recombinant protein (100 ng) in reaction buffer {10 mM HEPES, pH 7.25, 6 mM MgCl2, 0.1% CHAPS, 250 mM sucrose, and 0.25 mM EDTA} was placed in each well (7.5 µl), and the plates were preincubated at room temperature for 15 min. The phosphatase reaction was started by adding PI(3,4,5)P3 diluted in the reaction buffer (7.5 µl) to each well to reach a final concentration of 100 µM PI(3,4,5)P3 in the 15 µl reaction volume. The plates were incubated at room temperature for 20 min, after which, 15 µl BIOMOL green reagent (Biomol, Plymouth Meeting, PA, USA) was added to each well, and then the plates were incubated for another 25 min at room temperature. Absorbance was measured at 620 nm using a Pherastar FS plate reader (BMG Labtech, Offenburg, Germany). For the manual malachite green phosphate assay in 96-well plates [see Fig. 1; and activity measurement of phosphatase and tensin homolog (PTEN; Signalchem, Richmond, BC, Canada)], the reaction volume was increased to 50 µl, and 100 µl Biomol Green Reagent was added.

[2] = biological target: T2, SHIP2 immunoprecipitated from the lysates of podocytes (Homo sapiens, UniProt O15357); experiment: Activity of SHIP2 immunoprecipitated from podocytes; assay type: cell-based; conditions: 20–24 h
T2 construct: endogenous in cells; host or cells: immortalized human podocytes
T2 sequence (O15357 1-1258): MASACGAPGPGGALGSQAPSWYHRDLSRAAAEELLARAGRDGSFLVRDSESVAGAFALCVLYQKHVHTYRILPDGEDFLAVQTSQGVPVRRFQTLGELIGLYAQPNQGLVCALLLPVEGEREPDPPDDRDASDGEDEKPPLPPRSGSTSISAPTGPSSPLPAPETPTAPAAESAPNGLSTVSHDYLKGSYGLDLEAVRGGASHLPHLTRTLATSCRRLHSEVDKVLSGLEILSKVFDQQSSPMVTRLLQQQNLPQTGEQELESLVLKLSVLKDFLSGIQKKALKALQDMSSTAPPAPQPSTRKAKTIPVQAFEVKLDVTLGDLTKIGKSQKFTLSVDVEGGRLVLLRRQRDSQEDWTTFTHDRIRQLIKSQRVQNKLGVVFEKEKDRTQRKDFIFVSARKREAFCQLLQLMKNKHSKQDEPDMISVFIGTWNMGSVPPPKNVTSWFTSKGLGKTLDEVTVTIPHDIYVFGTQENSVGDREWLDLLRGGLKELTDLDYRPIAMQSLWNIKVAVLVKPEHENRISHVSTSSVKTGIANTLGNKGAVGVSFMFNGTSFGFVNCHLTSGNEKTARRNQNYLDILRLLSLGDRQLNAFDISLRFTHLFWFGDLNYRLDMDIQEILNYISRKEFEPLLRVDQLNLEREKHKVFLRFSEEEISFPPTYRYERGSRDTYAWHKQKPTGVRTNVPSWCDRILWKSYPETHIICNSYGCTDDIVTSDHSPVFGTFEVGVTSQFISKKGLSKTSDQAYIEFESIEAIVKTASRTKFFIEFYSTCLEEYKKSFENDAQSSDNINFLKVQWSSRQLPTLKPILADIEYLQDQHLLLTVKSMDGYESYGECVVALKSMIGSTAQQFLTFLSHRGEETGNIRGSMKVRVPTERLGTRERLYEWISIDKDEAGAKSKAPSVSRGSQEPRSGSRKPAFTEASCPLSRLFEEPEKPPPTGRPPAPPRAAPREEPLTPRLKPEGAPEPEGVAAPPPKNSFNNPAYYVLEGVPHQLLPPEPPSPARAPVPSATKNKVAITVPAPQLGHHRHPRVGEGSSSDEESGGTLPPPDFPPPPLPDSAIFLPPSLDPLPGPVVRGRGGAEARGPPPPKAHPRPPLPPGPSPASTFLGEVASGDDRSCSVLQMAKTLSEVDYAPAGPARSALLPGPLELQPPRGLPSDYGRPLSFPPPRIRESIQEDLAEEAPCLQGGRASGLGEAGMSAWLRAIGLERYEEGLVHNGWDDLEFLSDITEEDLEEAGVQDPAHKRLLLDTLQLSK
Procedure: Immortalized human podocytes were maintained as previously described ([10]). […] Podocytes were lysed as previously described ([21]).
Recombinant His-tagged human SHIP2 and SHIP1 phosphatase domains were produced as previously described ([17]). […] Immunocomplexes were bound to protein G-Sepharose beads at +4°C for 2 h and washed 3 times with malachite green phosphate assay buffer {10 mM 4-(2-hydroxyethyl)-1-piperazineethanesulfonic acid (HEPES), pH 7.25, 6 mM MgCl2, 0.1% 3-[(3-cholamidopropyl)dimethylammonio]-1-propanesulfonate (CHAPS), 250 mM sucrose, and 0.25 mM EDTA}.
The catalytic activities of the recombinant SHIP2 and SHIP1 phosphatase domains were determined by malachite green phosphate assay at the High Throughput Biomedicine Unit (University of Helsinki) using D-myo-PI(3,4,5)P3 (Echelon Biosciences, Salt Lake City, UT, USA). Different volumes, resulting in desired final concentrations of inhibitors, were transferred to the wells of 384-well plates by using the Echo550 acoustic dispenser (Labcyte, San Jose, CA, USA). Recombinant protein (100 ng) in reaction buffer {10 mM HEPES, pH 7.25, 6 mM MgCl2, 0.1% CHAPS, 250 mM sucrose, and 0.25 mM EDTA} was placed in each well (7.5 µl), and the plates were preincubated at room temperature for 15 min. The phosphatase reaction was started by adding PI(3,4,5)P3 diluted in the reaction buffer (7.5 µl) to each well to reach a final concentration of 100 µM PI(3,4,5)P3 in the 15 µl reaction volume. […] Absorbance was measured at 620 nm using a Pherastar FS plate reader (BMG Labtech, Offenburg, Germany). […] The catalytic activity of SHIP2 immunoprecipitated from cell and tissue lysates was determined as in Saurus et al. ([22]), omitting SHIP2 inhibitors in lysis buffer, immunoprecipitation reaction, wash, and assay buffers. […]
Hydrogen bond is shown in green. […] The catalytic activity of SHIP2 was measured by manual malachite green phosphate assay.

db/db mice = conditions: cited from earlier work
SHIP2 expression level = experiment: Immunoblot of SHIP2 expression in cultured cells; assay type: cell-based, rat, human; conditions: 2 mM, 20–24 h; myotubes, podocytes, hepatoma cells
Source text: Rat L6 myoblasts (American Type Culture Collection, Manassas, VA, USA) and hepatoma cells (Fao Cells, Culture Collection; Public Health England, Salisbury, United Kingdom) were maintained according to the provider’s instructions. L6 myoblasts stably expressing hemagglutinin-GLUT4-green fluorescent protein (HA-GLUT4-GFP, referred to as L6-GLUT4) were generated, as previously described ([19]). Immortalized human podocytes were maintained as previously described ([10]). Lentiviral infection was used to overexpress or knock down transiently SHIP2 in cultured cells on d 10–12 of differentiation for 48 h (basal level) or 72 h (insulin stimulation), as previously described ([10], [20]). Human pLKO1-short hairpin RNA (shRNA) SHIP2 ([sequence]) was obtained from Functional Genomics Unit, University of Helsinki. […] Podocytes were lysed as previously described ([21]). Myotubes, hepatoma cells, and tissues were lysed and immunoblotting performed as in Tolvanen et al. ([19]) with anti-SHIP2 and anti-AMPK (Santa Cruz Biotechnology, Dallas, TX, USA); anti-phospho (p)Akt (S473), anti-pAMPK (Thr172), anti-AMPK, and anti-cleaved caspase-3 (Cell Signaling Technology, Danvers, MA, USA); anti-Pan Akt (R&D Systems, Minneapolis, MN, USA); anti-tubulin, anti-Glut4, and anti-Glut1 (MilliporeSigma, Burlington, MA, USA); and anti-actin (Abcam, Cambridge, United Kingdom).

[3] = test system: Akt phosphorylation (pAkt S473); experiment: Immunoblot of Akt phosphorylation in cultured cells; assay type: cell-based, rat, human; conditions: 2 mM, 20–24 h
Procedure: Lentiviral infection was used to overexpress or knock down transiently SHIP2 in cultured cells on d 10–12 of differentiation for 48 h (basal level) or 72 h (insulin stimulation), as previously described ([10], [20]). […] Podocytes were lysed as previously described ([21]). Myotubes, hepatoma cells, and tissues were lysed and immunoblotting performed as in Tolvanen et al. ([19]) with anti-SHIP2 and anti-AMPK (Santa Cruz Biotechnology, Dallas, TX, USA); anti-phospho (p)Akt (S473), anti-pAMPK (Thr172), anti-AMPK, and anti-cleaved caspase-3 (Cell Signaling Technology, Danvers, MA, USA); anti-Pan Akt (R&D Systems, Minneapolis, MN, USA); anti-tubulin, anti-Glut4, and anti-Glut1 (MilliporeSigma, Burlington, MA, USA); and anti-actin (Abcam, Cambridge, United Kingdom).
Cell lysates were subjected to immunoblot analysis with anti-SHIP2, anti-cleaved caspase-3, and anti-actin IgGs. […] Cell lysates were subjected to immunoblot analysis with anti-SHIP2, anti-Akt, anti-pAkt, and anti-actin IgGs. G) Quantification of pAkt levels in F presented as pAkt/Akt after normalizing to actin. Data are presented as the mean ± SD of 3–5 independent experiments. *P ≤ 0.05, **P ≤ 0.01, ***P ≤ 0.001 (Student’s t test).

PCK1 and G6Pase mRNA = experiment: Quantitative RT-PCR of gluconeogenesis genes in db/db mice; assay type: in vivo, mouse; conditions: 250 mg/kg per day, 12 d
Source text: At the end of the experiment, mice were euthanized. […]
The expression levels of the rate-
analyzed by quantitative RT-PCR (n=6).
internal controls for liver and kidney, respectively. The bars show the mean expres sion in arbitrary

[4] = test system: podocytes in kidneys of patients with T2D; experiment: Podocyte number per glomerulus (WT1-positive cells) in patient kidneys; assay type: in vivo, human; conditions: compared with people without T2D; WT1-positive cells per glomeruli
Source text: The use of human material was approved by the local Ethics Committee, and written, informed consent was received from study participants. Paraffin sections were stained with anti-SHIP2 (I-20) as in Hyvonen et al. ([10]) or anti- Wilms tumor protein 1 (WT1; Santa Cruz Biotechnology) using the Brightvision Poly-HRP-anti-Rabbit IgG kit (ImmunoLogic, Amsterdam, The Netherlands) and 3,3′-diaminobenzidine (Dako Cytomation, Carpinteria, CA, USA). Slides were counterstained with hematoxylin and digitally scanned with 3DHistech Pannoramic 250 FLASH II (3DHistech, Budapest, Hungary) at the Genome Biology Unit (University of Helsinki). Quantification of SHIP2 staining intensity was performed with the HistoQuant module (3DHistech). Podocyte number was estimated by counting the number of WT1-positive cells per glomerular cross-section in 10 glomeruli per patient in a blinded manner, as described in Guo et al. ([24]). Only glomeruli larger than 170 µm in diameter were examined to ensure sectioning through the center of each glomerulus.
Kidney samples were lysed, and the enzymatic activity of immunoprecipitated SHIP2 was analyzed by malachite green phosphate assay (n = 4–7). […] Ten randomly chosen glomeruli were analyzed from each patient (n = 6–7). […] Podocyte number per glomeruli was quantified by counting WT1-positive cells. Ten randomly chosen glomeruli were analyzed from each patient (n = 9–30).

T1 sequence (P60484 whole entry, species assumed): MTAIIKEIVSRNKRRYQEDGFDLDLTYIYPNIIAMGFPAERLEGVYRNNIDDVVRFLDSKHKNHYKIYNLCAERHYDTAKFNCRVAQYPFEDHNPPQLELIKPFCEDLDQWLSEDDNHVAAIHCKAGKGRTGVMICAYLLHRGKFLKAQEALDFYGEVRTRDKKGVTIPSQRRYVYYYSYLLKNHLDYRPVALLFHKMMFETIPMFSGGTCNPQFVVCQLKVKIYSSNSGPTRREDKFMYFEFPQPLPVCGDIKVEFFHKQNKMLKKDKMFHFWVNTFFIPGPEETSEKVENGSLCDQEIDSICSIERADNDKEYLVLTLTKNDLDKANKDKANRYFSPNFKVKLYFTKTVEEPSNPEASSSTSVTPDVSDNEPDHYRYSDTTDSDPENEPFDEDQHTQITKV

| Structure (SMILES) | PTEN Inhibition efficiency ([1]; inhibitors at 100 µM concentration) | IC50 ([1]; manual assay) | reduction of SHIP2 activity in podocytes ([2]; 20 µM) | PCK1 expression in db/db mice (db/db mice) | blood glucose in db/db mice (db/db mice; short-term treatment) | insulin sensitivity in db/db mice (db/db mice; short-term treatment) | inhibition of PTEN (in words) [1] | PTEN IC50 ([1]; manual assay) | reduction of SHIP2 activity in podocytes ([2]; 1 mM) | effect on SHIP2 expression level in cultured cells (SHIP2 expression level) | insulin-induced Akt phosphorylation in SHIP2-overexpressing podocytes ([3]; insulin 200 nM, 15 min) | Akt phosphorylation (activity) in basal state ([3]; myotubes and podocytes) | G6Pase mRNA level in kidney (PCK1 and G6Pase mRNA) | G6Pase mRNA level in liver (PCK1 and G6Pase mRNA) | PCK1 mRNA level in kidney (PCK1 and G6Pase mRNA) | PCK1 mRNA level in liver (PCK1 and G6Pase mRNA) | podocyte loss in metformin-receiving patients [4] |
| --- | --- | --- | --- | --- | --- | --- | --- | --- | --- | --- | --- | --- | --- | --- | --- | --- | --- |
| C[C@H](NC(=O)c1sccc1OCc1ccc(Cl)cc1)c1ccccc1 [AS1949490] | 0% | > 50 µM | 20–30% | reduce | reduced | improved |  |  |  |  |  |  |  |  |  |  |  |
| CN(C)C(=N)N=C(N)N [Metformin, 1,1-Dimethylbiguanide hydrochloride] |  |  | 20–30% |  |  |  | does not inhibit | >50 µM | 14% | no effect | restored its activity | did not increase | increased | decreased | increased | decreased | 11% |
